Calls of active or inactive are those of the source. No rule for the calls is given here.
Test system: CCRIS mutagenicity, Ames/micronucleus/aberration tests
Experiment: CCRIS mutagenicity studies
Settings: Test System: AMES SALMONELLA TYPHIMURIUM; Strain/Indicator: TA98; Metabolic Activation: NONE; Method: PREINCUBATION

O=[N+]([O-])/C=C/c1ccc([N+](=O)[O-])o1
mutagenic call: active; positive
